We go through two compounds from patent US5260425A, “Anthracycline derivatives having cytostatic activity” (priority 1988, dated 1993).

Broadly, the IC50 is the concentration that inhibits the measured activity by half. As a reminder, the LD50 is the dose expected to kill half of the subjects tested.

SMILES strings stand for the structures. ≈ marks a conversion by molar mass, not a printed value. Like-named read-outs stand apart in the source and are kept apart here.

Data set [1] concerns L1210 mouse leukemia cells. The data set can be described thus: Formation of colonies of L1210 leukemia cells in soft agar (cytotoxicity in vitro). In kind it is cell-based. Conditions: Mus musculus. The procedure: The cytostatic activity of the compounds according to the invention has been tested using L1210 mouse leukemia cells. Employed for this purpose was the formation of colonies of L1210 leukemia cells in agar plates. This method is used to detect the effect of the test substances on the growth behavior of the cells over 1 hour or over several generations. In this connection, with a cell cycle time of 10-12 hours about 14 consecutive generations are observed in the 7 days the test lasts. In this test, the substances having cytostatic activity according to the invention bring about a reduction in the number of colonies to be observed by comparison with an untreated control sample.
Procedure for determining the formation of colonies of L1210 leukemia cells in soft agar
500 leukemia cells per plate were incubated with various concentrations of the test substance at 37° C. for 1 hour. The cells were then washed twice with McCoy5A medium and finally, after addition of 0.3% agar, poured into Petri dishes. Controls were incubated only with fresh medium. In place of the incubation for one hour, in some cases various concentrations and test substances were mixed with the upper agar layer in order in this way to achieve continuous exposure of the cells throughout the incubation time. After the agar had solidified, the plates were incubated in an incubator at 37° C. for 7 days (5% by volume CO2, 95% relative humidity). The number of colonies which had been produced with a diameter of more than 60 μm was then counted. The results have been reported as the number of colonies in treated agar plates as a percentage of the untreated control. The IC50 was determined as a measure of the activity of the substance from the dose-effect plot obtained in this way. The results for the compounds described herein, by comparison with adriamycin, are compiled in Table 1.

Data set [2] can be described thus: Determination of the indicative toxicity. Conditions: mouse, in vivo; 3xiv,q3d (three intravenous administrations, 3 days interval); survival day 14.
Another data set relates to L1210 leukemia. The data set is described as follows: In vivo activity on L1210 leukemia of the mouse (antitumor activity T/C). Conditions: Mus musculus, L1210, iv. The procedure:
Ascites fluid is removed from DBA2 mice (female, 18-20 g) under sterile conditions 7 days after inoculation of tumor cells. The ascites is washed three times with PBS (phosphate-buffered saline), counted and adjusted to a cell count of 10^6 in 0.2 ml of PBS.
10^6 cells, suspended in 0.2 ml of PBS, are then injected intraperitoneally into DBF1 mice (female, 18-20 g). 6 animals per group are used for each substance concentration and as controls.
a) The animals are weighed on days 1 and 5 after injection of the test substance. A weight loss of more than 20% on day 5 is regarded as an indicator of a toxic effect of the substance.
b) At the end of the experiment (death of all animals or surviving animals on day 60) the mean survival time of the animals in the particular groups is determined as long as at least 65% of the animals were still alive on day 5 of the experiment. The mean survival time is determined only for animals which die during the course of the experiment. Long-term survivors (LTS) are not included in this calculation and are reported separately.
The antitumor activity (T/C) for the particular substance concentration is determined from the mean survival time (MSTT) in the treated groups and in the control groups (MSTC) as a percentage of the untreated controls in accordance with the following formula: [formula]
The T/C values and the treatment regimen employed in each case are compiled in Table 3, together with the indicative toxicity. T/C values greater than 125% are regarded as an indicator of a significant antitumor activity of the test substance.

As for `C#CCN(C)[C@H]1C[C@H](O[C@H]2C[C@](O)(CC)[C@H](O)c3c(O)c4c(c(O)c32)C(=O)c2c(O)cccc2C4=O)O[C@@H](C)[C@H]1O` [Compound 2, 7-O-(3'-N-methyl-3'-N-proparayl-alpha-L-daunosaminyl)-β-rhodomycinone], the IC50 in data set [1] (168 h, continuous incubation, 7 days, L1210 colonies in agar, read-out: IC50, continuous incubation) is 0.08 mg/L (≈ 0.141 µM); in data set [1] (1 h incubation, then 7 days, L1210 colonies in agar, read-out: IC50, 1 h incubation), 0.3 mg/L (≈ 0.529 µM). Moreover, the LD50 at 336 h in data set [2] lay within 2 to 5 mg/kg. Further, the response vs control in vivo at 1.2 mg/kg in the data set on L1210 leukemia (3xiv,q3d, dose 1.20 mg/kg, % of the control) is 144%.

As for `CC[C@@]1(O)C[C@H](O[C@H]2C[C@H](N(C)CC3CO3)[C@H](O)[C@H](C)O2)c2c(O)c3c(c(O)c2[C@H]1O)C(=O)c1c(O)ccc(O)c1C3=O` (stereo partly drawn) [Compound 14m, 7-O-(3'-N-Glycidyl-3'-N-methyl-alpha-L-daunosaminyl)-β-isorhodomycinone], the half-inhibitory concentration (IC50) is 0.005 mg/L (≈ 0.00831 µM) in data set [1] (L1210, 168 h, read-out: IC50, continuous incubation, continuous incubation, 7 days, L1210 colonies in agar) and 0.0024 mg/L (≈ 0.00399 µM) in data set [1] (L1210, read-out: IC50, 1 h incubation, 1 h incubation, then 7 days, L1210 colonies in agar). Moreover, the 50% lethal dose (LD50) at 336 h in data set [2] lay in the range of 0.3 to 0.75 mg/kg. Besides, in the data set with L1210 leukemia (read-out: T/C, L1210-leukemia in vivo), the response vs control in vivo at 0.13 mg/kg came to 104%.
